US20060069036A1, “Methods of treatment of inflammation using glutathiones” (priority 2004, published 2006)

What was measured:
GSH levels = settings: oral administration, cited from earlier work
psoriasis lesions = test system: psoriasis lesions
From the text: As of the filing of this application, a preliminary program of clinical testing has been conducted. […] Patients instructed to apply the product twice daily to the affected areas.

[1] = patients with psoriasis symptoms, topical cream 45 mg/ml GSH in phospholipid carrier, twice daily

SMILES	effect on GSH levels (GSH levels; HIV patients)	safety and tolerability (GSH levels)	adverse side effects (psoriasis lesions; clinical studies to date, topical application)	response of patient lesions to treatment (psoriasis lesions; patients with psoriasis symptoms, topical cream 45 mg/ml GSH in phospholipid carrier, applied twice daily to affected areas)	elasticity and supple feeling of the skin (psoriasis lesions; [1])	inflammation, irritation, and erythema of the skin (psoriasis lesions; [1])	time after first application to significant improvement (in some cases clearing) of lesions (psoriasis lesions; [1]) [h]
O=C(O)CCCCC1CCSS1 (stereo not drawn) [alpha-lipoic acid, Alpha-lipoic acid]	raises GSH levels	extremely safe and well tolerated					
N[C@@H](CCC(=O)N[C@@H](CS)C(=O)NCC(=O)O)C(=O)O [reduced glutathione (GSH), N-L-gamma-glutamyl-cysteinyl glycine]			no adverse side effects	significantly improved	returned	decreased	≤ 24
